According to paper PMC4072711, “A GPBAR1 (TGR5) Small Molecule Agonist Shows Specific Inhibitory Effects on Myeloid Cell Activation In Vitro and Reduces Experimental Autoimmune Encephalitis (EAE) In Vivo” (PLoS ONE, 2014):

Target: T1, GPBAR1 (TGR5) (Homo sapiens, UniProt Q8TDU6)
T1 sequence (Q8TDU6 1-330): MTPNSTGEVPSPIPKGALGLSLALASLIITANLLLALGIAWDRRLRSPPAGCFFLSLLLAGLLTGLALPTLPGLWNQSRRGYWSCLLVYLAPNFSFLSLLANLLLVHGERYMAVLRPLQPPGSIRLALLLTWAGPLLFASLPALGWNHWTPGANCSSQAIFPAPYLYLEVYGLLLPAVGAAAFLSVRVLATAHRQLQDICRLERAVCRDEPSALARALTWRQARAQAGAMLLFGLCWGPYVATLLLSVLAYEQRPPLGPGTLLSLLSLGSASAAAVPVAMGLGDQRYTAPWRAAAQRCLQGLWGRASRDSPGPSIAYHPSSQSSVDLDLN
Assay: AlphaScreen cAMP assay in CHO cells expressing human GPBAR1; no response in parental CHO cells

EC50: 9 nM
Substance: BIX02694
